Data on 28 molecules can be found in patent US9789110B2, “Diacylglycerol acyltransferase 2 inhibitors” (PFIZER INC., priority 2014, dated 2017).

What is called pIC50 is the IC50 on a negative log10 scale, so that one unit is a factor of ten.

pIC50: −log10 of the molar value.

For the assay, the target named is hDGAT2 (Homo sapiens (Human), UniProt Q96PD7). The assay can be described thus: In vitro DGAT2 assay, hDGAT2 membrane fraction, [14C]decanoyl-CoA scintillation readout. Type of assay: biochemical. As to conditions: geometric mean; FLAG-hDGAT2 membrane fraction; 2 h preincubation; read-out: IC50 for inhibition of DGAT2. The procedure: Recombinant baculovirus for the FLAG-tagged hDGAT2 was generated in SF9 insect cells using Bac-to-Bac baculovirus expression system (Invitrogen) according to the manufacturer's protocol. For the expression of hDGAT2, SF9 cells (20 L) grown in Sf90011 media were infected with hDGAT2 baculovirus at a multiplicity of infection of 1 in a Wave Bioreactor System 20/50P wave bag (GE Healthcare). After 40 hours of infection, the cells were then harvested by centrifugation at 5,000×g. The cell pellets were washed by resuspending in phosphate buffered saline (PBS) and collected by centrifugation at 5,000×g. The cell paste was flash frozen in liquid N2 and stored at −80° C. until needed. All operations below were at 4° C. unless otherwise noted. The cells were resuspended in lysis buffer (50 mM Tris-HCl, pH 8.0, 250 mM sucrose) including 1 mM ethylenediaminetetraacetic acid (EDTA) and the complete protease inhibitor cocktail (Roche Diagnostics) at a ratio of 3 ml buffer per 1 g cell paste. The cells were lysed by dounce homogenizer. The cell debris was removed by centrifugation at 1,000×g for 20 min, and the supernatant was centrifuged at 100,000×g for 1 hour. The resulting pellet was rinsed three times by filling ultracentrifuge tubes to the top with ice cold PBS before decanting. The washed pellet was resuspended with gentle stirring for 1 hour in lysis buffer containing 8 mM 3-[(3-cholamidopropyl)dimethylammonio]-1-propanesulfonate (CHAPS) at a ratio of 1 mL buffer per 1 g of original cell paste and centrifuged again at 100,000×g for 1 hour. The resulting supernatant was aliquotted, flash frozen in liquid N2, and stored at −80° C. until use.
hDGAT2, sequence (Q96PD7 whole entry): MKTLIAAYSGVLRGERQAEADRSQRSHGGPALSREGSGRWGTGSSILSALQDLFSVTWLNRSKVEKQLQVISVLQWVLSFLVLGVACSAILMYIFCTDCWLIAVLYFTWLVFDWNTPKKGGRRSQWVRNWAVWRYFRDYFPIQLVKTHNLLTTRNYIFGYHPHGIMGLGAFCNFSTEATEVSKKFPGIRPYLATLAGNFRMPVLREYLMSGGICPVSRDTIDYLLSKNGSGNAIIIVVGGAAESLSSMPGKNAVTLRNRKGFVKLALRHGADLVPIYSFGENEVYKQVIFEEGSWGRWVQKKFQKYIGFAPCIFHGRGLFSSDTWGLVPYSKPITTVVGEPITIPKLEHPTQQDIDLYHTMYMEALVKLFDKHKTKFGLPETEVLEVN
For determination of IC50 values, the reactions were carried out in 384-well white Polyplates (Perkin Elmer) in a total volume of 20 μL. To […] compounds dissolved in 100% DMSO and spotted at the bottom of each well, 5 μL of 0.04% bovine serum albumin (BSA) (fatty acid free, Sigma Aldrich) was added and the mixture was incubated at room temperature for 20 minutes. To this mixture, 10 μL of hDGAT2 membrane fraction (0.01 mg/mL) diluted in 100 mM Hepes-NaOH, pH 7.4, 20 mM MgCl2 containing 200 nM methyl arachidonyl fluorophosphonate (Cayman Chemical; dried from ethyl acetate stock solution under argon gas and dissolved in DMSO as 5 mM stock) was added. After this mixture was preincubated at room temperature for 2 hours, DGAT2 reactions were initiated by the addition of 4 μL of substrates containing 30 μM [1-^14C]decanoyl-CoA (custom-synthesized by Perkin Elmer, 50 mCi/mmol) and 125 μM 1,2-didecanoyl-sn-glycerol (Avanti Polar Lipids) dissolved in 12.5% acetone. The reaction mixtures were incubated at room temperature for 40 min and the reactions were stopped by addition of 5 μL of 1% H3PO4. After the addition of 45 μL MicroScint-E (Perkin-Elmer), plates were sealed with Top Seal-A covers (Perkin-Elmer) and phase partitioning of substrates and products was achieved using a HT-91100 microplate orbital shaker (Big Bear Automation, Santa Clara, Calif.). Plates were centrifuged at 2,000×g for 1 min in an Allegra 6R Centrifuge (Beckman Coulter) and then were sealed again with fresh covers before reading in a 1450 Microbeta Wallac Trilux Scintillation Counter (Perkin Elmer). DGAT2 activity was measured by quantifying the generated product [^14C]tridecanoylglycerol in the upper organic phase.
Inhibitors were tested at eleven different concentrations to generate IC50 values for each compound.
On to `CCOc1ccccc1O[C@@H]1CCCN(c2ncc(C(=O)NCc3cccc(C(=O)O)c3OC)cn2)C1` [Example 14, (R)-3-((2-(3-(2-ethoxyphenoxy)piperidin-1-yl)pyrimidine-5-carboxamido)methyl)-2-methoxybenzoic acid], for which the pIC50 was 7.12.
For `CCOc1ccccc1O[C@@H]1CCCN(c2ncc(C(=O)N3CCOCC3)cn2)C1` [Example 19.1, (R)-(2-(3-(2-ethoxyphenoxy)piperidin-1-yl)pyrimidin-5-yl)(morpholino)methanone], the pIC50 is 7.65.
In the case of `CCOc1ccccc1O[C@@H]1CCCN(c2ncc(C(=O)NCc3ccon3)cn2)C1` [Example 19.3, (R)-2-(3-(2-ethoxyphenoxy)piperidin-1-yl)-N-(isoxazol-3-ylmethyl)pyrimidine-5-carboxamide], the pIC50 was 7.97.
Consider `CCOc1ccccc1O[C@@H]1CCCN(c2ncc(C(=O)NCC3CC3)cn2)C1` [Example 19.4, (R)-N-(cyclopropylmethyl)-2-(3-(2-ethoxyphenoxy)piperidin-1-yl)pyrimidine-5-carboxamide], for which the pIC50 is 7.73.
As to `CCOc1ccccc1O[C@@H]1CCCN(c2ncc(C(=O)NCC(=N)N)cn2)C1` [Example 19.5, (R)-N-(2-amino-2-iminoethyl)-2-(3-(2-ethoxyphenoxy)piperidin-1-yl)pyrimidine-5-carboxamide], the pIC50 was 6.91.
As to `CCOc1ccccc1O[C@@H]1CCCN(c2ncc(C(=O)N3Cc4cnn(C)c4C3)cn2)C1` [Example 19.6, (R)-(2-(3-(2-ethoxyphenoxy)piperidin-1-yl)pyrimidin-5-yl)(1-methyl-4,6-dihydropyrrolo[3,4-c]pyrazol-5(1H)-yl)methanone], the pIC50 was 7.46.
Consider `CCOc1ccccc1O[C@@H]1CCCN(c2ncc(C(=O)NCc3ccccc3)cn2)C1` [Example 19.7, (R)-N-benzyl-2-(3-(2-ethoxyphenoxy)piperidin-1-yl)pyrimidine-5-carboxamide], for which the negative logarithm of the IC50 (pIC50) is 8.37.
In the case of `CCOc1ccccc1O[C@@H]1CCCN(c2ncc(C(=O)NCCS(C)(=O)=O)cn2)C1` [Example 19.8, (R)-2-(3-(2-ethoxyphenoxy)piperidin-1-yl)-N-(2-(methylsulfonyl)ethyl) pyrimidine-5-carboxamide] it was 6.99.
In the case of `CCOc1ccccc1O[C@@H]1CCCN(c2ncc(C(=O)N3CC(OC)C3)cn2)C1` [Example 19.9, (R)-(2-(3-(2-ethoxyphenoxy)piperidin-1-yl)pyrimidin-5-yl)(3-methoxyazetidin-1-yl)methanone], the pIC50 was 7.84.
`CCOc1ccccc1O[C@@H]1CCCN(c2ncc(C(=O)NCCn3cncn3)cn2)C1` [Example 19.10, (R)-N-(2-(1H-1,2,4-triazol-1-yl)ethyl)-2-(3-(2-ethoxyphenoxy)piperidin-1-yl)pyrimidine-5-carboxamide]: the negative logarithm of the IC50 (pIC50) was 7.49.
For `CCOc1ccccc1O[C@@H]1CCCN(c2ncc(C(=O)N3CCC3)cn2)C1` [Example 19.11, (R)-azetidin-1-yl(2-(3-(2-ethoxyphenoxy)piperidin-1-yl)pyrimidin-5-yl)methanone], the negative logarithm of the IC50 (pIC50) was 7.57.
Consider `CCOc1ccccc1O[C@@H]1CCCN(c2ncc(C(=O)N3Cc4ccccc4C3)cn2)C1` [Example 19.12, (R)-(2-(3-(2-ethoxyphenoxy)piperidin-1-yl)pyrimidin-5-yl)(isoindolin-2-yl)methanone], for which the pIC50 was 8.85.
With `CCOc1ccccc1O[C@@H]1CCCN(c2ncc(C(=O)N[C@H]3CNC(=O)C3)cn2)C1` [Example 19.13, 2-((R)-3-(2-ethoxyphenoxy)piperidin-1-yl)-N-((R)-5-oxopyrrolidin-3-yl)pyrimidine-5-carboxamide] the figure was 7.33.
Turning to `CCOc1ccccc1O[C@@H]1CCCN(c2ncc(C(=O)N3C[C@H]4C[C@@H]3CO4)cn2)C1` [Example 19.14, ((1R,4R)-2-oxa-5-azabicyclo[2.2.1]heptan-5-yl)(2-((R)-3-(2-ethoxyphenoxy)piperidin-1-yl)pyrimidin-5-yl)methanone], the pIC50 was 7.67.
On to `CCOc1ccccc1O[C@@H]1CCCN(c2ncc(C(=O)NCc3cocn3)cn2)C1` [Example 19.15, (R)-2-(3-(2-ethoxyphenoxy)piperidin-1-yl)-N-(oxazol-4-ylmethyl)pyrimidine-5-carboxamide], for which the pIC50 was 7.95.
With `CCOc1ccccc1O[C@@H]1CCCN(c2ncc(C(=O)N[C@@H]3CNC(=O)C3)cn2)C1` [Example 19.16, 2-((R)-3-(2-ethoxyphenoxy)piperidin-1-yl)-N-((S)-5-oxopyrrolidin-3-yl)pyrimidine-5-carboxamide], the pIC50 was 6.91.
In the case of `CCOc1ccccc1O[C@@H]1CCCN(c2ncc(C(=O)NC(C)(C)CC(N)=O)cn2)C1` [Example 19.17, (R)-N-(4-amino-2-methyl-4-oxobutan-2-yl)-2-(3-(2-ethoxyphenoxy)piperidin-1-yl)pyrimidine-5-carboxamide], the pIC50 is 7.91.
With `CCOc1ccccc1O[C@@H]1CCCN(c2ncc(C(=O)NCc3cnccn3)cn2)C1` [Example 19.18, (R)-2-(3-(2-ethoxyphenoxy)piperidin-1-yl)-N-(pyrazin-2-ylmethyl)pyrimidine-5-carboxamide] the figure was 7.65; with `CCOc1ccccc1O[C@@H]1CCCN(c2ncc(C(=O)Nc3ccon3)cn2)C1` [Example 19.19, (R)-2-(3-(2-ethoxyphenoxy)piperidin-1-yl)-N-(isoxazol-3-yl)pyrimidine-5-carboxamide], 7.95.
`CCOc1ccccc1O[C@@H]1CCCN(c2ncc(C(=O)Nc3cncnc3)cn2)C1` [Example 19.20, (R)-2-(3-(2-ethoxyphenoxy)piperidin-1-yl)-N-(pyrimidin-5-yl)pyrimidine-5-carboxamide]: the pIC50 is 7.48.
With `CCOc1ccccc1O[C@@H]1CCCN(c2ncc(C(=O)NC3CCC3)cn2)C1` [Example 19.22, (R)-N-cyclobutyl-2-(3-(2-ethoxyphenoxy)piperidin-1-yl)pyrimidine-5-carboxamide], the pIC50 was 7.97.
With `CCOc1ccccc1O[C@@H]1CCCN(c2ncc(C(=O)NCCC(N)=O)cn2)C1` [Example 20.1, (R)-N-(3-amino-3-oxopropyl)-2-(3-(2-ethoxyphenoxy)piperidin-1-yl)pyrimidine-5-carboxamide], the pIC50 is 6.83.
Take `CCOc1ccccc1O[C@@H]1CCCN(c2ncc(C(=O)NCCCc3nn[nH]n3)cn2)C1` [Example 20.2, (R)-N-(3-(2H-tetrazol-5-yl)propyl)-2-(3-(2-ethoxyphenoxy)piperidin-1-yl)pyrimidine-5-carboxamide]: the pIC50 is 6.37.
As for `CCOc1ccccc1O[C@@H]1CCCN(c2ncc(C(=O)N(C)C)cn2)C1` [Example 20.3, (R)-2-(3-(2-ethoxyphenoxy)piperidin-1-yl)-N,N-dimethylpyrimidine-5-carboxamide], the pIC50 was 6.98.
Turning to `CCOc1ccccc1O[C@@H]1CCCN(c2ncc(C(=O)NCCC(=O)NC)cn2)C1` [Example 20.4, (R)-2-(3-(2-ethoxyphenoxy)piperidin-1-yl)-N-(3-(methylamino)-3-oxopropyl)pyrimidine-5-carboxamide], the pIC50 is 7.27.
On to `CCOc1ccccc1O[C@@H]1CCCN(c2ncc(C(=O)NCC(=O)NC)cn2)C1` [Example 20.6, (R)-2-(3-(2-ethoxyphenoxy)piperidin-1-yl)-N-(2-(methylamino)-2-oxoethyl)pyrimidine-5-carboxamide], for which the pIC50 is 6.84.
Take `CCOc1ccccc1O[C@@H]1CCCN(c2ncc(C(=O)N3CC(F)(F)C3)cn2)C1` [Example 20.7, (R)-(3,3-difluoroazetidin-1-yl)(2-(3-(2-ethoxyphenoxy)piperidin-1-yl)pyrimidin-5-yl)methanone]: the pIC50 is 8.10.
As for `CCOc1ccccc1O[C@@H]1CCCN(c2ncc(C(=O)N3CCCC3)cn2)C1` [Example 20.9, (R)-(2-(3-(2-ethoxyphenoxy)piperidin-1-yl)pyrimidin-5-yl)(pyrrolidin-1-yl)methanone], the pIC50 is 7.61.
